Two compounds from patent US4661499A, “2-[(substituted)-phenoxymethyl]quinolines” (Merck Frosst Canada, Inc., priority 1985, dated 1987) can be followed below.

This experiment concerns LTB4 formation. Briefly: Rat Peritoneal Polymorphonuclear (PMN) Leukocyte Assay (leukotriene inhibitor assay). The class given is cell-based. The settings on record: A-23187 10 μM. As to the method:
For example, 2-[4-(1-hydroxyhexylphenoxymethyl)]quinoline (see Example 1) was compared to its 3-(1-hydroxyhexylphenoxymethyl) analog in the PMN (leukotriene inhibitor) assay.
Rats under ether anesthesia are injected (i.p.) with 8 ml of a suspension of sodium cascinate (6 grams in ca. 50 ml water). After 15-24 hr. the rats are sacrificed (CO2) and the cells from the peritoneal cavity are recovered by lavage with 20 ml of buffer (Eagles MEM containing 30 mM HEPES adjusted to pH 7.4 with NaOH). The cells are pelleted (350×g, 5 min.), resuspended in buffer with vigorous shaking, filtered, through lens paper, recentrifuged and finally suspended in buffer at a concentration of […]. A 500 μl aliquot of PMN suspension and test compound are preincubated for 2 minutes at 37° C., followed by the addition of 10 μM A-23187. The suspension is stirred for an additional 4 minutes then bioassayed for […] content by adding an aliquot to a second 500 μl portion of the PMN at 37° C. The LTB4 produced in the first incubation causes aggregation of the second PMN, which is measured as a change in light transmission. The size of the assay aliquot is chosen to give a submaximal transmission change (usually -70%) for the untreated control. The percentage inhibition of LTB4 formation is calculated from the ratio of transmission change in the sample to the transmission change in the compound-free control.

Regarding `CCCCCC(O)c1ccc(OCc2ccc3ccccc3n2)cc1` (centres unmarked) [Example 1], the “% Inhibition of LTB4 formation” value was determined as 15% (0.0016 μg/ml); 49% (0.008 μg/ml); 89% (0.04 μg/ml); 100% (0.2 μg/ml); 100% (1 μg/ml); 100% (5 μg/ml).
`CCCCCC(O)c1cccc(OCc2ccc3ccccc3n2)c1` (centres unmarked) [Example 3-Analog, reference compound]: the “% Inhibition of LTB4 formation” value reads like this: (0.008 μg/ml) -1%; (0.04 μg/ml) 39%; (0.2 μg/ml) 100%; (1 μg/ml) 100%; (5 μg/ml) 100%.
